Reference: patent publication US20150216865A1, “METHODS OF TREATING A BRUTON'S TYROSINE KINASE DISEASE OR DISORDER” (Celgene Avilomics Research, Inc., priority 2012, published 2015)
Entries after “also recorded” stand apart in the source; their conditions may differ. Marks after values point to notes of the source that are not given here.

Legend:
[1] = system: semi-established CIA Dba1 mice; assay: Semi-established collagen induced arthritis (CIA) model; assay type: in vivo, mouse; conditions: for disease incidence: study day 33
Description: Semi-Established Collagen Induced Arthritis (CIA) Arthritis Model. Experiments were carried out at Bolder Biopath, Boulder, Colo. All experiments were carried out in compliance with regulations of the Institutional Animal Care and Use Committee and were conducted in accordance with principles and procedures dictated by the highest standards of humane animal care. Dba1 mice were injected at the base of the tail with 150 μL of Freund's Complete Adjuvant (Sigma) containing bovine type II collagen (Elastin Products, Owensville, Mo.) (2 mg/ml) on day 0 and again on day 21. Mice were randomized into treatment groups on study day 21, and treatment was initiated. Treatment continued daily (3 mg/kg, 10 mg/kg or 30 mg/kg QD at 24 hour intervals) through day 33, and mice were terminated on day 33 (animals 1-6) or day 34 (animals 7-12). Onset of arthritis occurred between study days 21 and 34. Clinical scores were assessed for each of the paws on study days 21-34 using the following scoring system: 0=normal, 1=one hind or fore paw joint affected or minimal diffuse erythema and swelling, 2=two hind or fore paw joints affected or mild diffuse erythema and swelling, 3=three hind or fore paw joints affected or moderate diffuse erythema and swelling, 4=marked diffuse erythema and swelling or =four digit joints affected, 5=severe diffuse erythema and severe swelling entire paw, unable to flex digits. Spleens and plasma were harvested at necropsy (day 33 for animals 1-6 and day 34 for animals 7-12) and paws were removed and fixed in formalin for histopathological analysis.

[2] = system: collagen-induced arthritis Dba1 mouse model; assay: Established collagen induced arthritis model (clinical score, histopathology, body weight); assay type: in vivo
Description: Established Collagen Induced Arthritis Model: Experiments were carried out at Bolder Biopath, Boulder, Colo. All experiments were carried out in compliance with regulations of the Institutional Animal Care and Use Committee and were conducted in accordance with principles and procedures dictated by the highest standards of humane animal care. […] On study days 25-27, onset of arthritis occurred, and mice were randomized into treatment groups (10/treatment group, 4/group for normal). […] Randomization into each group was done after swelling was obviously established in at least one paw, and attempts were made to assure approximately equal mean scores across the groups at the time of enrollment. […] Treatment continued daily (QD at 24 h intervals) through arthritis day 14.

[3] = system: IL-6; assay: Inflammatory chemokine and cytokine analysis in CIA mice, IL-6; assay type: in vivo, mouse; conditions: dexamethasone group
Source text: (§1) Inflammatory Chemokine and Cytokine Analysis: At the termination of the CIA study, mice were sacrificed and blood was harvested via cardiac punch using EDTA as an anticoagulant. […] Levels of various mouse cytokines in plasma were quantified using Bioplex® Suspension Array System according to manufacturer's instruction (BioRad, mTNFa (171-G5023M), mIL-6 (171-G5007M), mKC (171-G5018M), mIFNg (171-G5017M), mIL-17 (Z60-00006Z2), mIL-1β (171-G5002M), mMCP-1 (171-G5019M).

[4] = system: TNF-a; assay: Inflammatory chemokine and cytokine analysis in CIA mice, TNF-a; assay type: in vivo, mouse; conditions: dexamethasone group
Description: Inflammatory Chemokine and Cytokine Analysis: At the termination of the CIA study, mice were sacrificed and blood was harvested via cardiac punch using EDTA as an anticoagulant. Following centrifugation, serum was diluted 1:4 with a mouse serum diluents kit (BioRad cat#171-305004). Levels of various mouse cytokines in plasma were quantified using Bioplex® Suspension Array System according to manufacturer's instruction (BioRad, mTNFa (171-G5023M), mIL-6 (171-G5007M), mKC (171-G5018M), mIFNg (171-G5017M), mIL-17 (Z60-00006Z2), mIL-1β (171-G5002M), mMCP-1 (171-G5019M).

[5] = system: KC; assay: Inflammatory chemokine and cytokine analysis in CIA mice, KC; assay type: in vivo, mouse; conditions: dexamethasone group
Source text: as §1

[6] = target: T1, Btk (Mus musculus, UniProt P35991); assay: Btk protein resynthesis in mice (spleen covalent probe ELISA); assay type: in vivo
T1 construct: from tissue; host or cells: mouse spleen
Description: Spleen Homogenization: Spleens were harvested from mice, frozen immediately in liquid nitrogen and stored at −80° C. To generate spleen lysates, each spleen was sliced in half and lysed using a Precellys 24 Bead Homogenizer in 500 μL of BioRad Bio-Plex Lysis Buffer plus protease inhibitors. Supernatant was transferred to a fresh microfuge tube and stored frozen at −80° C. until analysis.
(§2) Btk Target Site Occupancy ELISA: An ELISA method for the detection of free uninhibited Btk in mouse, rat, dog, monkey, and human lysates was developed at Celgene Avilomics Research and a validation of this method in human B cell lysate was performed by a CLIA Certified laboratory (Cambridge Biomedical Laboratories, Boston, Mass.) The parameters that were assessed included: accuracy, linearity, dilution, precision (intra and inter-assay), stability, reference range, freeze-thaw cycles, reportable range, specificity, sensitivity, and carryover. […] Standards and samples were transferred to a streptavidin-coated 96-well ELISA plate and mixed while shaking for 1 h at room temperature. […] After wash, goat α-mouse-HRP (1:5000 dilution in PBS+0.05% Tween-20+0.5% BSA) was added and incubated for 1 h at room temperature. The ELISA was developed with addition of tetramethyl benzidine (TMB) followed by Stop Solution and read at OD 450 nm.
Btk Protein Resynthesis in Mice. […] Spleens were homogenized and assayed on the covalent probe ELISA for Btk target site occupancy and compound concentration in serum was measured.

[7] = target: T2, Btk (Homo sapiens, UniProt Q06187); assay: Immunoblot of Btk signaling in α-IgM stimulated Ramos cells; assay type: cell-based
Description: (§3) Following incubation, cells were centrifuged and resuspended in 100 μL of serum-free RPMI and BCR was stimulated with addition of 5 μg/mL α-human IgM. […] Membranes were scanned on a LiCor Odyssey Scanner using infrared fluorescence detection.

[8] = target: T2, Btk; assay: Btk target site occupancy ELISA, Ramos cells; assay type: cell-based; conditions: one hour, read-out: EC90 of Btk occupancy (concentration required for 90% occupancy)
Description: as §2

[9] = Plasma level of compound in mice of the Btk resynthesis experiment; assay type: in vivo, mouse; conditions: single oral 50 mg/kg, n=6
Description: Btk Protein Resynthesis in Mice. […] At 4, 8, 16, 24, 48, 72, and 96 hours after treatment, spleens and serum were harvested (n=6 mice/timepoint). Spleens were homogenized and assayed on the covalent probe ELISA for Btk target site occupancy and compound concentration in serum was measured.

[10] = system: PGPS 10S-induced arthritis in rats; assay: PGPS 10S-induced model of chronic arthritis; assay type: in vivo, rat
Description: PGPS 10S-Induced Model of Chronic Arthritis. Rats were injected intraperitoneal with […] of animal body weight, to induce arthritis. Left and right hind limb lateral ankle widths of each rat were measured three times each prior to PG-PS 10S administration and on day 5. The first inflammatory response peak for both right and left ankles of PG-PS rats was reached on day 4. Rats were assigned to one of five treatment groups. […] Another group was treated with 0.3 mg/kg QD dexamethasone on the 3rd day post first peak (day 7) through day 22.

[11] = system: naïve human B-cells; assay: B lymphocyte proliferation (3H-thymidine incorporation); assay type: cell-based; conditions: B-cell; α-human IgM stimulated
Description: B Lymphocyte Proliferation (^3H-Thymidine Incorporation): A suspension of resting purified naïve human B-cells isolated by negative selection (MACS reagent 130-091-150) in RPMI was prepared at 0.4-0.5×10^6 cells per mL. […] Experiments were performed in triplicate.

[12] = target: T2, Btk; assay: Immunoblot of Btk kinase activity in human primary naïve B cells; assay type: cell-based; conditions: 10 nM
Description: as §3

[13] = target: T2, Btk; assay: Btk target site occupancy ELISA, human primary naïve B cells; assay type: cell-based; conditions: 10 nM
Description: as §2

[14] = target: T2, Btk; assay: Btk biochemical kinase assay; conditions: read-out: IC50apparent, Btk kinase activity
[15] = target: EGFR (Homo sapiens, UniProt P00533); assay: Biochemical kinase assay, EGFR (probe selectivity); conditions: read-out: IC50app EGFR
[16] = target: Syk (Homo sapiens, UniProt P43405); assay: Biochemical kinase assay, Syk (probe selectivity); conditions: read-out: IC50app Syk
[17] = target: Lyn (Homo sapiens, UniProt P07948); assay: Biochemical kinase assay, Lyn (probe selectivity); conditions: read-out: IC50app Lyn
Sequence of Lyn (P07948 whole entry): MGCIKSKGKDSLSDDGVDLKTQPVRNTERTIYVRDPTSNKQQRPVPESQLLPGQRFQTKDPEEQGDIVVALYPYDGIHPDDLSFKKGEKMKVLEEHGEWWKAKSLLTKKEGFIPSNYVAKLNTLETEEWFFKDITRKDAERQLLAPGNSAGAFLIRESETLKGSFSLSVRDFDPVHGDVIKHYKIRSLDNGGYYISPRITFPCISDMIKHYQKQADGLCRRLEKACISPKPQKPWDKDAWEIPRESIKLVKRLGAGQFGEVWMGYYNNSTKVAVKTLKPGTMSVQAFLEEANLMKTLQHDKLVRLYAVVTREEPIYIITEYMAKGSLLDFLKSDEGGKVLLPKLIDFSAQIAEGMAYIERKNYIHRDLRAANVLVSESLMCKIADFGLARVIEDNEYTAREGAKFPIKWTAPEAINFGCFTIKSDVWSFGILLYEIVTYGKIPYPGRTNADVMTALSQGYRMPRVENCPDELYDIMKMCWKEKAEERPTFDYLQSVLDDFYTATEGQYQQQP

T2 sequence (Q06187 whole entry): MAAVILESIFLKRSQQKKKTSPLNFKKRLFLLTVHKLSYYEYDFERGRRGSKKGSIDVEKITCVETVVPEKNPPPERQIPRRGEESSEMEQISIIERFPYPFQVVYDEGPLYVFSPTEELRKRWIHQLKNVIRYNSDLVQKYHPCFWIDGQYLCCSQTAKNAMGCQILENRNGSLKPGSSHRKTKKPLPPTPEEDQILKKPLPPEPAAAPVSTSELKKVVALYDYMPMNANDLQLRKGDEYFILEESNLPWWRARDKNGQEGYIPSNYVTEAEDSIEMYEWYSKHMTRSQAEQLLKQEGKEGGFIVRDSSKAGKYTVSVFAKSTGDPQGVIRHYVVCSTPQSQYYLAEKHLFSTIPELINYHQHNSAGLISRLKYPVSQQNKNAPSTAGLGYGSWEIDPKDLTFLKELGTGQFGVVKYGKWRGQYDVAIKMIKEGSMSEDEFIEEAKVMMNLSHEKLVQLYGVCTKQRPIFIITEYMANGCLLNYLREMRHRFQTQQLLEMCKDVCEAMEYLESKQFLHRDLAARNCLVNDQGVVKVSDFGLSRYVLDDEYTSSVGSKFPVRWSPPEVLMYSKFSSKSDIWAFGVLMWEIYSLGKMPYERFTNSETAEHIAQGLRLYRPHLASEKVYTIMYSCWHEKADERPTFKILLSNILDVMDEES
T1 sequence (P35991 whole entry): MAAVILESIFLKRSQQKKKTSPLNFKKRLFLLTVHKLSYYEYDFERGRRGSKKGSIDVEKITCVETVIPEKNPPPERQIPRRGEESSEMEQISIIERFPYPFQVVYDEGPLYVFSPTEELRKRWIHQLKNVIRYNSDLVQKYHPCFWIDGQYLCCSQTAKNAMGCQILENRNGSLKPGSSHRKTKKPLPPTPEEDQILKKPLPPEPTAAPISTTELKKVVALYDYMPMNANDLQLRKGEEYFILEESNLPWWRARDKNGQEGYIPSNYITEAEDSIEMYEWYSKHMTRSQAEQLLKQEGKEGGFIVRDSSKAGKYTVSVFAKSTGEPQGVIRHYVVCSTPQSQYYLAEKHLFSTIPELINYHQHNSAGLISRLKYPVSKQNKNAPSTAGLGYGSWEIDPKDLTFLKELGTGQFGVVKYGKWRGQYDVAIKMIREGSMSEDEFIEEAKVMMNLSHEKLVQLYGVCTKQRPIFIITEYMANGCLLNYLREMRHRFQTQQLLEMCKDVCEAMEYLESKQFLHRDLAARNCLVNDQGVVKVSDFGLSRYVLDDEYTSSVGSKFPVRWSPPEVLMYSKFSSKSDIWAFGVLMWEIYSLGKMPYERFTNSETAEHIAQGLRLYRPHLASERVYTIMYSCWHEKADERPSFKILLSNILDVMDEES
Sequence of EGFR (P00533 25-1210): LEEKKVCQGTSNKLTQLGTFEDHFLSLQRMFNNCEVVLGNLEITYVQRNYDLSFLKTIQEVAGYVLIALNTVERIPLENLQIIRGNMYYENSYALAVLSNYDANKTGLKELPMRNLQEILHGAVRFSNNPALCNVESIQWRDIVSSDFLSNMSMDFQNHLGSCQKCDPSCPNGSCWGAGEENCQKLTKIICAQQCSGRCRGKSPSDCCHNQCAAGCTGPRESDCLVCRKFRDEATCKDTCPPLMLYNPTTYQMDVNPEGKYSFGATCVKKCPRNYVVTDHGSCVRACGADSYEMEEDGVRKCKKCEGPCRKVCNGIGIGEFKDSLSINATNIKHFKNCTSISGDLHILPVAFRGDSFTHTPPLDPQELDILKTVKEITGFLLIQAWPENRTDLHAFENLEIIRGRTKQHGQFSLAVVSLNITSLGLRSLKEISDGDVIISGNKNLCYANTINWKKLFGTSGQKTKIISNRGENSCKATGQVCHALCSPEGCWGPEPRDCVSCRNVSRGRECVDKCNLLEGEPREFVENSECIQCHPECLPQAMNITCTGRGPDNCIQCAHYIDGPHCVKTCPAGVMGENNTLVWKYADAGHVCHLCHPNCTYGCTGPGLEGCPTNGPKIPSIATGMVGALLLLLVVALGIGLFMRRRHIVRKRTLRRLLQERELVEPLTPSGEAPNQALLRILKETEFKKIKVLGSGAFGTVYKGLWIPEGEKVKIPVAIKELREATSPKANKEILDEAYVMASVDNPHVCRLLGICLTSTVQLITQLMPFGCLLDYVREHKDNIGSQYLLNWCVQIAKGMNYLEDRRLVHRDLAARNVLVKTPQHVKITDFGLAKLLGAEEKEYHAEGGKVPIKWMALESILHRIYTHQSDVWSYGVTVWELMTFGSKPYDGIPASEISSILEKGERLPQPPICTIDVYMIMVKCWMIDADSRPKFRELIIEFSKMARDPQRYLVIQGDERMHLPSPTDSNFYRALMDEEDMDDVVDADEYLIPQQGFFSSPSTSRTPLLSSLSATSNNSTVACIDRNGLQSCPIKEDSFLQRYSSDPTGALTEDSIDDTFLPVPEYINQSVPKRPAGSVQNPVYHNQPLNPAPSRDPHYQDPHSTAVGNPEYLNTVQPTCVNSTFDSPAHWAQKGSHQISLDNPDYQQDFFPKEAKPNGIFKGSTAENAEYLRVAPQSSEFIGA

In the case of `C[C@@H]1C[C@H]2[C@@H]3CCC4=CC(=O)C=C[C@]4(C)[C@@]3(F)[C@@H](O)C[C@]2(C)[C@@]1(O)C(=O)CO` [dexamethasone, reference compound], the disease incidence ([1]; dexamethasone group) is reported as 0%, the “inhibition of histopathologic signs of disease (six joints)” value ([2]; dexamethasone positive control (0.2 mg/kg)) is reported as 82% and the IL-6 mean [3] is reported as 9.8* pg/mL. The TNF-a mean [4] was 131.0 pg/mL and the KC mean [5] was 52.9 pg/mL.

With `C=CC(=O)Nc1cccc(Nc2nc(Nc3ccc(OCCOC)cc3)ncc2F)c1` [Compound 1, N-(3-(5-fluoro-2-(4-(2-methoxyethoxyl)phenylamino)pyrimidin-4-ylamino)phenyl)acrylamide] the “persistence of action on Btk (occupancy) after circulating compound has disappeared” value ([6]; mice, single oral 50 mg/kg) was greater than 12 h, the “new Btk protein, % of pre-dose Btk protein levels” value ([6]; mouse spleen, 24 hours after single oral 50 mg/kg) was 43% and the “new Btk protein, % of pre-dose Btk protein levels” value ([6]; mouse spleen, 48 hours after single oral 50 mg/kg) was 71%. The “time for Btk protein to recover to 50% pre-dose levels” value ([6]; mouse spleen, single oral 50 mg/kg) was 24 to 48 h, the “concentration at which 90% of Btk activity was inhibited” value [7] was 35 nM and the “activation of the downstream kinase Erk” value ([7]; anti-IgM) was “potently inhibited”. The “phosphorylation of Btk on Tyr551” value ([7]; anti-IgM) was “no effect”, the “phosphorylation of the Btk substrate PLCγ2” value ([7]; anti-IgM) was “potently inhibited” and the disease incidence ([1]; 3 mg/kg QD) was 50%. The disease incidence ([1]; 10 mg/kg QD) was 17%, the disease incidence ([1]; 30 mg/kg QD) was 8% and the “body weight loss associated with severity of disease” value ([1]; all three dose levels) was “prevented the loss in body weight”. For the same molecule, the “inhibition of histopathologic signs of disease (six joints)” value ([2]; 10 mg/kg) was 87%, the EC90 [8] was 39 nM and the “compound concentration in plasma at the 8 hour timepoint” value [9] was “undetectable in 5/6 mice; also recorded: absent in 5 of 6 animals”. The “spleen enlargement vs vehicle” value ([10]; 10 mg/kg QD, 30 mg/kg QD and 30 mg/kg QOD) was “significantly prevented spleen enlargement”, the “PGPS 10S-induced arthritis” value ([10]; 3, 10, 30 mg/kg QD, 30 mg/kg QOD) was “inhibited PGPS 10S-induced arthritis in a dose-dependent manner” and the “right and left lateral ankle width vs diseased group” value ([10]; PGPS rats, day 7 through day 22) was “significantly lower”. The EC50 [11] was 3 nM, the inhibition at 0.01 µM [12] was 42% and the receptor occupancy at 0.01 µM [13] was 37%.

Work on `C=CC(=O)Nc1cccc(Nc2nc(Nc3cccc(OCCCNC(=O)CCCC(=O)NCCCOCCOCCOCCCNC(=O)CCCC[C@@H]4SC[C@@H]5NC(=O)N[C@@H]54)c3)ncc2C)c1` [Compound 2] yielded an IC50 [14] of 0.5 nM, an IC50 [15] greater than 25 nM and an IC50 [16] greater than 1000 nM. For the same molecule, the IC50 [17] was greater than 3500 nM.
